Test results as given in the supplement of paper PMC10307832.

Tests used:
Test in all cases: relative viability (nuclei count vs DMSO), 5 days (fraction); higher = more cells survive
Sunitinib + Palbociclib = compound: CCN(CC)CCNC(=O)c1c(C)[nH]c(/C=C2\C(=O)Nc3ccc(F)cc32)c1C [Sunitinib] + CC(=O)c1c(C)c2cnc(Nc3ccc(N4CCNCC4)cn3)nc2n(C2CCCC2)c1=O [Palbociclib] (partner 0.5 µM)
In short: (§1)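 Relative viability divides the nuclei count in treated wells by that in vehicle wells. Lung cancer cell lines were seeded in 1536-well plates, dosed by pin tool the next day, and fixed and stained after 5 days in one step with final 0.05% Triton X-100, 1% formaldehyde and 1 ug/ml Hoechst. Dosing was a single drug or a fixed anchor-drug dose plus five library-drug doses (not always all listed) in √10 steps, and values are medians of duplicate plates imaged at 4×.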

Sunitinib + Pictilisib = compound: CCN(CC)CCNC(=O)c1c(C)[nH]c(/C=C2\C(=O)Nc3ccc(F)cc32)c1C [Sunitinib] + CS(=O)(=O)N1CCN(Cc2cc3nc(-c4cccc5[nH]ncc45)nc(N4CCOCC4)c3s2)CC1 [Pictilisib] (partner 1 µM)
In short: as §1

Sunitinib + Phenformin = compound: CCN(CC)CCNC(=O)c1c(C)[nH]c(/C=C2\C(=O)Nc3ccc(F)cc32)c1C [Sunitinib] + N=C(N)NC(=N)NCCc1ccccc1 [Phenformin] (partner 250 µM)
In short: as §1

Sunitinib + Decitabine = compound: CCN(CC)CCNC(=O)c1c(C)[nH]c(/C=C2\C(=O)Nc3ccc(F)cc32)c1C [Sunitinib] + Nc1ncn([C@H]2C[C@H](O)[C@@H](CO)O2)c(=O)n1 [Decitabine] (partner 2 µM)
In short: as §1

Row | Cell Line | relative viability (Sunitinib + Palbociclib; first compound 0.02 µM) | relative viability (Sunitinib + Palbociclib; first compound 0.06325 µM) | relative viability (Sunitinib + Palbociclib; first compound 0.2 µM) | relative viability (Sunitinib + Palbociclib; first compound 0.6325 µM) | relative viability (Sunitinib + Palbociclib; first compound 2 µM) | relative viability (Sunitinib + Pictilisib; first compound 0.02 µM) | relative viability (Sunitinib + Pictilisib; first compound 0.06325 µM) | relative viability (Sunitinib + Pictilisib; first compound 0.2 µM) | relative viability (Sunitinib + Pictilisib; first compound 0.6325 µM) | relative viability (Sunitinib + Pictilisib; first compound 2 µM) | relative viability (Sunitinib + Phenformin; first compound 0.02 µM) | relative viability (Sunitinib + Phenformin; first compound 0.06325 µM) | relative viability (Sunitinib + Phenformin; first compound 0.2 µM) | relative viability (Sunitinib + Phenformin; first compound 0.6325 µM) | relative viability (Sunitinib + Phenformin; first compound 2 µM) | relative viability (Sunitinib + Decitabine; first compound 0.02 µM) | relative viability (Sunitinib + Decitabine; first compound 0.06325 µM) | relative viability (Sunitinib + Decitabine; first compound 0.2 µM) | relative viability (Sunitinib + Decitabine; first compound 0.6325 µM) | relative viability (Sunitinib + Decitabine; first compound 2 µM)
1 | NCI-H2009 | 0.183 | 0.241 | 0.212 | 0.231 | 0.25 | 0.748 | 0.791 | 0.842 | 0.876 | 0.758 | 0.446 | 0.501 | 0.461 | 0.465 | 0.429 | 0.349 | 0.364 | 0.371 | 0.424 | 0.373
2 | NCI-H838 | 0.221 | 0.23 | 0.237 | 0.227 | 0.2 | 0.409 | 0.499 | 0.506 | 0.487 | 0.361 | 0.546 | 0.769 | 0.583 | 0.583 | 0.511 | 0.447 | 0.489 | 0.476 | 0.485 | 0.448
3 | LC-2-ad | 0.491 | 0.481 | 0.593 | 0.48 | 0.42 | 0.51 | 0.461 | 0.444 | 0.285 | 0.28 | 0.526 | 0.574 | 0.643 | 0.61 | 0.573 | 0.788 | 0.777 | 0.82 | 0.728 | 0.714
4 | NCI-H2087 | 0.27 | 0.266 | 0.25 | 0.28 | 0.255 | 0.957 | 0.831 | 1.04 | 0.879 | 0.799 | 0.456 | 0.398 | 0.545 | 0.507 | 0.42 | 0.273 | 0.274 | 0.315 | 0.245 | 0.264
5 | NCI-H2347 | 0.454 | 0.43 | 0.453 | 0.422 | 0.472 | 0.554 | 0.91 | 0.691 | 0.705 | 0.912 | 0.486 | 0.484 | 0.567 | 0.384 | 0.404 | 0.562 | 0.617 | 0.642 | 0.66 | –
6 | NCI-H1650 | 0.359 | 0.472 | 0.384 | 0.392 | 0.33 | 0.535 | 0.559 | 0.545 | 0.681 | 0.536 | 0.384 | 0.492 | 0.382 | 0.533 | 0.371 | 0.45 | 0.379 | 0.315 | 0.475 | 0.416
7 | HCC-78 | 0.486 | 0.504 | 0.498 | 0.472 | 0.526 | 0.206 | – | 0.227 | – | 0.246 | 0.639 | 0.726 | 0.71 | 0.677 | 0.806 | 0.709 | 0.69 | 0.737 | 0.683 | 0.726
8 | UMC-11 | 0.339 | 0.386 | 0.379 | 0.351 | 0.33 | 0.793 | 0.883 | 0.968 | 0.814 | 0.866 | 0.331 | 0.352 | 0.355 | 0.324 | 0.309 | 0.553 | 0.551 | 0.583 | 0.737 | 0.597
